Assay results from PubChem BioAssay AID330 (DTP/NCI, 2004).
Several values for one entry are separate records, joined by “and”; a condition that tells them apart may be missing. Identical values can stand only once. Inconclusive results and toxic doses are left out.

Test system: P388 leukemia ip, CD2F1 mice, survival T/C
Test: NCI In Vivo Anticancer Drug Screen. Data for tumor model P388 Leukemia (intraperitoneal) in CD2F1 (CDF1) mice
Conditions: endpoint: median survival time, higher = longer survival
Summary of the method: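 Mice carrying the transplanted tumor received test compound or vehicle. Survival was recorded in each group, and the value is the treated-group measurement divided by that of the vehicle-treated control group.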

[1] = dose: 25.0 mg/kg/injection, schedule: Q01DX009 (ip), vehicle: saline with Tween-80
[2] = dose: 50.0 mg/kg/injection, schedule: Q01DX009 (ip), vehicle: saline with Tween-80
[3] = dose: 100.0 mg/kg/injection, schedule: Q01DX009 (ip), vehicle: saline with Tween-80
[4] = dose: 50.0 mg/kg/injection, schedule: Q01DX005 (ip), vehicle: saline with Tween-80
[5] = dose: 100.0 mg/kg/injection, schedule: Q01DX005 (ip), vehicle: saline with Tween-80
[6] = dose: 200.0 mg/kg/injection, schedule: Q01DX005 (ip), vehicle: saline with Tween-80

SMILES: O=C(Nc1ccc2cc(S(=O)(=O)O)ccc2c1)c1ccc(N=Nc2c(S(=O)(=O)O)cc3cc(S(=O)(=O)O)cc(NC(=O)c4ccccc4)c3c2O)cc1
- T/C [1]: 108 % of control
- T/C (dose: 25.0 mg/kg/injection, schedule: Q04DX003 (ip), vehicle: saline with Tween-80): 91 % of control
- T/C [2]: 108 % of control
- T/C (dose: 50.0 mg/kg/injection, schedule: Q04DX003 (ip), vehicle: saline with Tween-80): 87 % of control
- T/C [3]: 87 % of control
- T/C (dose: 100.0 mg/kg/injection, schedule: Q04DX003 (ip), vehicle: saline with Tween-80): 95 % of control

SMILES: COC(=O)[C@]1(C)CCC[C@]2(C)c3ccc(C(C)C)cc3C(=O)C[C@@H]12
- T/C (dose: 60.0 mg/kg/injection, schedule: Q01DX005 (ip), vehicle: saline with Tween-80): 95 % of control
- T/C (dose: 120.0 mg/kg/injection, schedule: Q01DX005 (ip), vehicle: saline with Tween-80): 94 % of control
- T/C (dose: 240.0 mg/kg/injection, schedule: Q01DX005 (ip), vehicle: saline with Tween-80): 93 % of control

SMILES: N=C1C(O)=CC(=O)C(O)=C1C(=O)O
- T/C (dose: 60.0 mg/kg/injection, schedule: Q01DX005 (ip), vehicle: saline): 104 % of control
- T/C (dose: 120.0 mg/kg/injection, schedule: Q01DX005 (ip), vehicle: saline): 103 % of control
- T/C (dose: 240.0 mg/kg/injection, schedule: Q01DX005 (ip), vehicle: saline): 101 % of control

SMILES: CC[C@@]1(O)C[C@H](OC2CC(N(C)C)C(OC3CC(O)C(OC4CCC(=O)C(C)O4)C(C)O3)C(C)O2)c2c(cc3c(c2O)C(=O)c2c(O)cccc2C3=O)[C@H]1C(=O)OC (stereo partly drawn)
- T/C (dose: 0.5 mg/kg/injection, schedule: Q03HX008 (ip), vehicle: saline): 120 % of control
- T/C (dose: 1.0 mg/kg/injection, schedule: Q01DX005 (iv), vehicle: saline): 108 % of control
- T/C (dose: 1.0 mg/kg/injection, schedule: Q01DX009 (oral), vehicle: saline): 98 % of control
- T/C (dose: 1.0 mg/kg/injection, schedule: Q01DX009 (sc), vehicle: saline): 115 % of control
- T/C (dose: 1.0 mg/kg/injection, schedule: Q03HX024 (ip), vehicle: saline): 167 % of control
- T/C (dose: 1.0 mg/kg/injection, schedule: Q04DX003 (ip), vehicle: saline): 103 % of control
- T/C (dose: 1.94 mg/kg/injection, schedule: Q04DX003 (ip), vehicle: clinical formulation): 96 % of control
- T/C (dose: 2.0 mg/kg/injection, schedule: Q01DX001 (iv), vehicle: saline): 105 % of control
- T/C (dose: 2.0 mg/kg/injection, schedule: Q01DX005 (ip), vehicle: saline): 167 % of control
- T/C (dose: 2.0 mg/kg/injection, schedule: Q01DX005 (iv), vehicle: saline): 120 % of control
- T/C (dose: 2.0 mg/kg/injection, schedule: Q01DX009 (ip), vehicle: saline): 168 % of control
- T/C (dose: 2.0 mg/kg/injection, schedule: Q01DX009 (oral), vehicle: saline): 115 % of control
- T/C (dose: 2.0 mg/kg/injection, schedule: Q04DX003 (ip), vehicle: clinical formulation): 117 % of control
- T/C (dose: 2.0 mg/kg/injection, schedule: Q04DX003 (ip), vehicle: saline): 116 % of control and 120 % of control
- T/C (dose: 2.5 mg/kg/injection, schedule: Q01DX009 (ip), vehicle: saline): 180 % of control
- T/C (dose: 2.59 mg/kg/injection, schedule: Q04DX002 (ip), vehicle: saline): 114 % of control
- T/C (dose: 4.0 mg/kg/injection, schedule: Q01DX001 (iv), vehicle: saline): 116 % of control
- T/C (dose: 4.0 mg/kg/injection, schedule: Q01DX005 (ip), vehicle: saline): 189 % of control
- T/C (dose: 4.0 mg/kg/injection, schedule: Q01DX005 (iv), vehicle: saline): 162 % of control
- T/C (dose: 4.0 mg/kg/injection, schedule: Q01DX009 (ip), vehicle: saline): 99 % of control
- T/C (dose: 4.0 mg/kg/injection, schedule: Q01DX009 (sc), vehicle: saline): 153 % of control
- T/C (dose: 4.0 mg/kg/injection, schedule: Q03HX008 (ip), vehicle: saline): 173 % of control
- T/C (dose: 4.0 mg/kg/injection, schedule: Q04DX003 (ip), vehicle: Klucel (hydroxypropylcellulose) (HPC)): 122 % of control
- T/C (dose: 4.32 mg/kg/injection, schedule: Q04DX002 (ip), vehicle: saline): 151 % of control
- T/C (dose: 5.4 mg/kg/injection, schedule: Q04DX003 (ip), vehicle: clinical formulation): 113 % of control
- T/C (dose: 5.4 mg/kg/injection, schedule: Q04DX003 (ip), vehicle: saline): 159 % of control
- T/C (dose: 6.7 mg/kg/injection, schedule: Q04DX003 (ip), vehicle: water): 154 % of control
- T/C (dose: 7.2 mg/kg/injection, schedule: Q04DX002 (ip), vehicle: saline): 161 % of control
- T/C (dose: 7.2 mg/kg/injection, schedule: Q04DX003 (ip), vehicle: saline): 175 % of control
- T/C (dose: 8.0 mg/kg/injection, schedule: Q01DX001 (oral), vehicle: saline): 110 % of control
- T/C (dose: 8.0 mg/kg/injection, schedule: Q01DX009 (oral), vehicle: saline): 153 % of control
- T/C (dose: 8.0 mg/kg/injection, schedule: Q01DX009 (sc), vehicle: saline): 95 % of control
- T/C (dose: 8.0 mg/kg/injection, schedule: Q04DX003 (ip), vehicle: clinical formulation): 183 % of control
- T/C (dose: 8.0 mg/kg/injection, schedule: Q04DX003 (ip), vehicle: saline): 172 % of control and 176 % of control
- T/C (dose: 9.0 mg/kg/injection, schedule: Q04DX003 (ip), vehicle: clinical formulation): 114 % of control
- T/C (dose: 9.0 mg/kg/injection, schedule: Q04DX003 (ip), vehicle: saline): 198 % of control
- T/C (dose: 10.0 mg/kg/injection, schedule: Q04DX003 (ip), vehicle: water): 170 % of control
- T/C (dose: 12.0 mg/kg/injection, schedule: Q04DX002 (ip), vehicle: saline): 166 % of control
- T/C (dose: 15.0 mg/kg/injection, schedule: Q04DX003 (ip), vehicle: saline): 95 % of control
- T/C (dose: 15.0 mg/kg/injection, schedule: Q04DX003 (ip), vehicle: water): 187 % of control
- T/C (dose: 16.0 mg/kg/injection, schedule: Q01DX001 (ip), vehicle: saline): 153 % of control
- T/C (dose: 16.0 mg/kg/injection, schedule: Q01DX001 (oral), vehicle: saline): 116 % of control
- T/C (dose: 16.0 mg/kg/injection, schedule: Q04DX003 (ip), vehicle: Klucel (hydroxypropylcellulose) (HPC)): 154 % of control
- T/C (dose: 16.0 mg/kg/injection, schedule: Q04DX003 (ip), vehicle: saline): 117 % of control
- T/C (dose: 32.0 mg/kg/injection, schedule: Q01DX001 (ip), vehicle: saline): 180 % of control
- T/C (dose: 32.0 mg/kg/injection, schedule: Q01DX001 (iv), vehicle: saline): 159 % of control

SMILES: COc1cc2c(cc1C(C)c1cc(C)c(OC)c(C)c1)OCO2 (stereo not drawn)
- T/C [4]: 100 % of control
- T/C [5]: 106 % of control
- T/C [6]: 101 % of control

SMILES: CCOC(=O)/C(=C/Nc1ccc(OCc2ccccc2)cc1)NC(=O)c1ccccc1
- T/C [2]: 87 % of control
- T/C (dose: 50.0 mg/kg/injection, schedule: Q01DX009 (ip), vehicle: saline): 86 % of control
- T/C [3]: 86 % of control
- T/C (dose: 100.0 mg/kg/injection, schedule: Q01DX009 (ip), vehicle: saline): 86 % of control
- T/C (dose: 200.0 mg/kg/injection, schedule: Q01DX009 (ip), vehicle: saline with Tween-80): 87 % of control
- T/C (dose: 200.0 mg/kg/injection, schedule: Q01DX009 (ip), vehicle: saline): 88 % of control
- T/C (dose: 400.0 mg/kg/injection, schedule: Q01DX009 (ip), vehicle: saline with Tween-80): 97 % of control
- T/C (dose: 400.0 mg/kg/injection, schedule: Q01DX009 (ip), vehicle: saline): 97 % of control

SMILES: CCN(CC)Cc1cc2[nH]c3c4ccc(Cl)cc4ncc3c2cc1OC
- T/C (dose: 6.25 mg/kg/injection, schedule: Q01DX009 (ip), vehicle: saline with Tween-80): 101 % of control
- T/C (dose: 12.5 mg/kg/injection, schedule: Q01DX009 (ip), vehicle: saline with Tween-80): 100 % of control
- T/C [1]: 98 % of control
- T/C [4]: 112 % of control
- T/C [2]: 87 % of control and 94 % of control
- T/C [5]: 102 % of control

SMILES: Oc1ccc2ccccc2c1/C=C/c1ccc2c(Br)cc(Br)c(O)c2n1
- T/C [4]: 99 % of control
- T/C [5]: 106 % of control
- T/C [6]: 88 % of control

SMILES: CC[C@H]1C[C@H](Cc2ccccc2)CC[C@H]1N1CCCC1
- T/C [4]: 101 % of control
- T/C [5]: 104 % of control

SMILES: COC(=O)CCCC1=NCCS1
- T/C [4]: 103 % of control
- T/C [5]: 103 % of control
- T/C [6]: 112 % of control

SMILES: Oc1ccc(O)c(/C=N/NC(=S)NC2CC3CC2C2C=CCC32)c1 (stereo not drawn)
- T/C (dose: 12.5 mg/kg/injection, schedule: Q01DX009 (ip), vehicle: olive oil, sesame oil, peanut oil): 90 % of control
- T/C (dose: 25.0 mg/kg/injection, schedule: Q01DX009 (ip), vehicle: olive oil, sesame oil, peanut oil): 102 % of control
- T/C (dose: 50.0 mg/kg/injection, schedule: Q01DX009 (ip), vehicle: olive oil, sesame oil, peanut oil): 102 % of control
- T/C (dose: 100.0 mg/kg/injection, schedule: Q01DX009 (ip), vehicle: olive oil, sesame oil, peanut oil): 98 % of control
- T/C (dose: 200.0 mg/kg/injection, schedule: Q01DX009 (ip), vehicle: olive oil, sesame oil, peanut oil): 105 % of control
